We go through 1 molecule from US20070249634A1, “Triazolopyrimidine Compounds and Use Thereof for Controlling Harmful Fungi” (priority 2004, published 2007).

Broadly, the melting point is the temperature of the solid-liquid transition.

SMILES strings stand for the structures.

`CC1CCN(c2c(-c3cc([N+](=O)[O-])ccc3Cl)c(Cl)nc3ncnn23)CC1` [compound 56, 5-chloro-6-(2-chloro-5-nitrophenyl)-7-(4-methylpiperidin-1-yl)-[1,2,4]-triazolo[1,5-a]pyrimidine] gave a melting point of 199 to 204 °C.
